Test results as given in the supplement of paper PMC6045584.
± gives the standard deviation of the averaged measurements.

How the values were obtained:
[1] = compound: C[C@@H]1CN(CC(=O)Nc2ccc3c(c2)Cc2cccc(-c4cc(=O)cc(N5CCOCC5)o4)c2S3)C[C@H](C)O1; test: surviving fraction relative to DMSO-only wells; higher = less growth inhibition; conditions: exposure time: 5 days
Procedure, shortened: (§1)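 Tumour cell lines in log phase were plated in 384-well plates at 250–500 cells per well, then, after 24 hours, exposed continuously for five days to inhibitors at 0.5, 1, 5, 10, 50, 100, 500 and 1000 nM. Viability came from CellTiter-Glo luminescence, and surviving fraction is that signal normalised to the median of DMSO-only wells. Plates were read after 10 minutes at room temperature, and each line, screened three times, was kept only when replicate Pearson r was >0.7 and median Z' was >0.3.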

BLEOMYCIN = compound: Cc1c(N)nc([C@H](CC(N)=O)NC[C@H](N)C(N)=O)nc1C(=O)N[C@H](C(=O)N[C@H](C)[C@@H](O)[C@H](C)C(=O)N[C@H](C(=O)NCCc1nc(-c2nc(C(=O)NCCC[S+](C)C)cs2)cs1)[C@@H](C)O)[C@@H](OC1OC(CO)C(O)C(O)C1OC1OC(CO)C(O)C(OC(N)=O)C1O)c1cnc[nH]1 [BLEOMYCIN]; test: as above; conditions: exposure time: 5 days
Procedure, shortened: as §1

Test System | surviving fraction ([1]; 0.5 nM) | surviving fraction ([1]; 1 nM) | surviving fraction ([1]; 5 nM) | surviving fraction ([1]; 10 nM) | surviving fraction ([1]; 50 nM) | surviving fraction ([1]; 100 nM) | surviving fraction ([1]; 500 nM) | surviving fraction ([1]; 1000 nM) | surviving fraction (BLEOMYCIN; 0.5 nM) | surviving fraction (BLEOMYCIN; 1 nM) | surviving fraction (BLEOMYCIN; 5 nM) | surviving fraction (BLEOMYCIN; 10 nM) | surviving fraction (BLEOMYCIN; 50 nM) | surviving fraction (BLEOMYCIN; 100 nM) | surviving fraction (BLEOMYCIN; 500 nM) | surviving fraction (BLEOMYCIN; 1000 nM)
CAL72 BONE | 1.01 ± 0.015 | 1.06 ± 0.03 | 1.03 ± 0.011 | 1.03 ± 0.021 | 0.955 ± 0.021 | 0.97 ± 0.0097 | 0.897 ± 0.026 | 0.811 ± 0.026 | 1.03 ± 0.032 | 1.02 ± 0.028 | 1 ± 0.044 | 1 ± 0.05 | 1.04 ± 0.04 | 1.01 ± 0.037 | 0.694 ± 0.066 | 0.556 ± 0.013
CAL120 BREAST | 1.01 ± 0.029 | 1.02 ± 0.013 | 1.03 ± 0.02 | 1.04 ± 0.011 | 1.02 ± 0.022 | 1 ± 0.015 | 0.946 ± 0.046 | 0.87 ± 0.018 | 0.901 ± 0.028 | 0.926 ± 0.022 | 0.903 ± 0.013 | 0.9 ± 0.023 | 0.819 ± 0.023 | 0.767 ± 0.021 | 0.546 ± 0.027 | 0.399 ± 0.0084
CASKI CERVIX | 0.925 ± 0.041 | 0.982 ± 0.035 | 0.963 ± 0.019 | 0.989 ± 0.07 | 0.91 ± 0.047 | 0.855 ± 0.057 | 0.759 ± 0.04 | 0.625 ± 0.037 | 0.763 ± 0.063 | 0.767 ± 0.057 | 0.7 ± 0.051 | 0.636 ± 0.088 | 0.691 ± 0.023 | 0.612 ± 0.051 | 0.229 ± 0.018 | 0.141 ± 0.0035
CHLA90 AUTONOMIC GANGLIA | 1.03 ± 0.052 | 1.07 ± 0.045 | 0.994 ± 0.07 | 1.08 ± 0.07 | 0.979 ± 0.0078 | 0.999 ± 0.068 | 1 ± 0.11 | 0.966 ± 0.041 | 0.941 ± 0.057 | 0.925 ± 0.035 | 0.906 ± 0.067 | 0.868 ± 0.025 | 0.864 ± 0.039 | 0.865 ± 0.021 | 0.827 ± 0.018 | 0.796 ± 0.032
CME SYNOVIAL | 1.35 ± 0.097 | 1.44 ± 0.15 | 1.25 ± 0.042 | 1.28 ± 0.13 | 1.11 ± 0.085 | 1.02 ± 0.054 | 0.689 ± 0.11 | 0.388 ± 0.014 | 0.718 ± 0.14 | 0.749 ± 0.16 | 0.742 ± 0.12 | 0.513 ± 0.081 | 0.265 ± 0.021 | 0.293 ± 0.036 | 0.211 ± 0.0078 | 0.203 ± 0.0091
COLO320DM LARGE INTESTINE | 1.04 ± 0.11 | 1.06 ± 0.12 | 1.05 ± 0.13 | 1.07 ± 0.059 | 1.04 ± 0.033 | 1.09 ± 0.037 | 1.03 ± 0.056 | 0.99 ± 0.015 | 1.09 ± 0.042 | 0.972 ± 0.025 | 1.03 ± 0.058 | 1.04 ± 0.099 | 1.15 ± 0.22 | 0.89 ± 0.052 | 0.868 ± 0.057 | 0.675 ± 0.024
DU4475 BREAST | 1.12 ± 0.23 | 1.08 ± 0.011 | 0.951 ± 0.13 | 1.18 ± 0.12 | 0.794 ± 0.22 | 1.12 ± 0.36 | 1.31 ± 0.55 | 1.05 ± 0.23 | 0.675 ± 0.13 | 0.792 ± 0.17 | 0.774 ± 0.2 | 0.77 ± 0.075 | 0.742 ± 0.13 | 0.62 ± 0.1 | 0.49 ± 0.11 | 0.378 ± 0.13
H23 LUNG | 1.08 ± 0.042 | 1.05 ± 0.021 | 1.11 ± 0.048 | 1.1 ± 0.033 | 1.09 ± 0.083 | 1.17 ± 0.056 | 1.06 ± 0.036 | 1.05 ± 0.045 | 0.955 ± 0.013 | 0.954 ± 0.032 | 0.886 ± 0.057 | 0.763 ± 0.028 | 0.509 ± 0.026 | 0.338 ± 0.0076 | 0.193 ± 0.014 | 0.118 ± 0.011
HCC78 LUNG | 1.13 ± 0.16 | 0.941 ± 0.26 | 1.07 ± 0.11 | 1.21 ± 0.21 | 1.15 ± 0.17 | 1.41 ± 0.29 | 1.27 ± 0.39 | 1.29 ± 0.013 | 0.839 ± 0.12 | 0.932 ± 0.32 | 0.892 ± 0.2 | 0.774 ± 0.39 | 0.376 ± 0.14 | 0.499 ± 0.13 | 0.202 ± 0.075 | 0.0983 ± 0.032
HCC202 BREAST | 1.01 ± 0.17 | 0.911 ± 0.089 | 0.845 ± 0.24 | 1.11 ± 0.26 | 0.84 ± 0.11 | 0.946 ± 0.25 | 0.845 ± 0.18 | 0.838 ± 0.28 | 1.13 ± 0.17 | 1.18 ± 0.095 | 1.09 ± 0.49 | 1.02 ± 0.14 | 1.1 ± 0.11 | 0.992 ± 0.17 | 0.862 ± 0.25 | 0.738 ± 0.1
